Results on one compound are retold here after US12631620B2, “Methods of generating organoids for high throughput screening of drugs” (Yissum Research Development Company of the Hebrew …, priority 2019, dated 2026).

Series [1] relates to E6/E7^LOW human hepatocytes. The experiment in a line: E6/E7LOW human hepatocyte viability assessment (LIVE/DEAD Cytotoxicity kit). It counts as cell-based. The note with it: 24 hours. On the procedure: E6/E7^LOW human hepatocyte were cultured with different concentrations of compounds dissolved in culture medium for 24 hours. Cell viability was subsequently determined using LIVE/DEAD Cytotoxicity kit (Molecular Probes, USA) according to manufacturer directions. Briefly, cultures were incubated for 30 minutes with 2 μM calcein AM and 3 μM ethidium homodimer-1. Live cells were positive for green fluorescence due to hydrolysis of the acetoxymethyl ester group by intracellular esterases. Dead cells were positive for red fluorescence due to ethidium homodimer-1 binding intracellular DNA, possible in […]. Cellular viability was expressed as live over dead ratio and normalized based on negative (DMSO/DDW/EtOH) and positive (0.1% Saponin) controls. Fluorescence micrographs were analyzed for total fluorescence using ImageJ for 12 repeats for each sample. TC50 and TC20 concentrations were calculated using MATLAB® Curve Fitting Tool. Results were fitted to a sigmoidal curve (Prentice, 1976; Wenner et al., 2011). Error bars indicate ±SE.

For series [2], the system named is E6/E7^LOW human hepatocytes. The experiment in a line: Bile secretion, CDFDA staining. It counts as cell-based. The settings on record: p<0.05, n=4. How it is done:
(§1) Quantification of Apoptotic index was performed using DeadEnd™ fluorometric TUNEL System (Promega) according to manufacturer directions. Briefly, cells were treated with TC20 concentrations of compounds dissolved in culture medium for 24 hours, and subsequently fixed in 4% Paraformaldehyde (PFA). Cells were then permeabilized and exposed to fluorescein-12-dUTP and terminal deoxynucleotidyl transferase (TdT). The reaction was subsequently stopped and the cells counterstained with 1 μg/mL Hoechst 33258. Apoptotic cells were positive for green fluorescence in the nucleus. Percentage apoptosis was defined as the number of TUNEL positive nuclei normalized to Hoechst 33258 positive nuclei. Quantification of Steatosis was performed using HCS LipidTOX™ Phospholipidosis and Steatosis Detection Kit (ThermoFisher). […] Quantification of Bile Secretion was performed using 5(6)-carboxy-2′,7′-dichlorofluorescein diacetate (CDFDA) staining. […] All quantifications were made in comparison to cells treated with melatonin as negative control.
Quantification of Apoptotic index was performed using DeadEnd™ fluorometric TUNEL System (Promega) according to manufacturer directions. […] Apoptotic cells were positive for green fluorescence in the nucleus. […] Quantification of Steatosis was performed using HCS LipidTOX™ Phospholipidosis and Steatosis Detection Kit (ThermoFisher). […]

For series [3] the following is noted: patients on therapy; cited from earlier work.
The test system of series [4] is E6/E7^LOW human hepatocytes. The experiment in a line: Steatosis and phospholipidosis, HCS LipidTOX detection kit, hepatocyte cultures. It counts as cell-based. How it is done: Quantification of Apoptotic index was performed using DeadEnd™ fluorometric TUNEL System (Promega) according to manufacturer directions. Briefly, cells were treated with TC20 concentrations of compounds dissolved in culture medium for 24 hours, and subsequently fixed in 4% Paraformaldehyde (PFA). Cells were then permeabilized and exposed to fluorescein-12-dUTP and terminal deoxynucleotidyl transferase (TdT). The reaction was subsequently stopped and the cells counterstained with 1 μg/mL Hoechst 33258. Apoptotic cells were positive for green fluorescence in the nucleus. Percentage apoptosis was defined as the number of TUNEL positive nuclei normalized to Hoechst 33258 positive nuclei. Quantification of Steatosis was performed using HCS LipidTOX™ Phospholipidosis and Steatosis Detection Kit (ThermoFisher). Briefly, differentiated cells were incubated with different concentrations of compounds dissolved in culture medium and 1× Phospholipidosis Detection Reagent for 48 hours, subsequently fixed in 4% PFA. Cells were then stained with 1× LipidTOX™ for 20 minutes and counterstained with 1 μg/mL Hoechst 33258. Staining intensity was normalized to number of Hoechst 33258 positive nuclei. Quantification of Bile Secretion was performed using 5(6)-carboxy-2′,7′-dichlorofluorescein diacetate (CDFDA) staining. Briefly, differentiated cells were incubated with different concentrations of compounds dissolved in culture medium for 24 hours. Cells were then treated with 10 μg/mL CDFDA and 1 μg/mL Hoechst 33342 for 30 minutes. Incubation medium was removed and cultures washed with ice-cold PBS containing calcium and magnesium. Staining intensity was normalized to number of Hoechst 33342 positive nuclei. Analysis excluded Intracellular CDFDA staining based on intensity and phase images. All quantifications were made in comparison to cells treated with melatonin as negative control.
as §1, with “Cell” for “Cells”, “Percentage apoptosis was defined as the number of TUNEL positive nuclei normalized to Hoechst 33258 positive nuclei.” left out

The next series deals with HepG2/C3A organoids. Kind of series: Neutral lipid and phospholipid staining of HepG2/C3A organoids on chip. The settings on record: p<0.001, n=9. It counts as cell-based, human.
The subject of another series is E6/E7^LOW hepatocytes. How it is done: According to some embodiments of the invention there is a sensor-integrated liver on chip array in which oxygen is monitored using two-frequency phase modulation of tissue-embedded phosphorescent microprobes, while glucose, lactate and temperature are measured in real time using microfluidic electrochemical sensors. Such a microphysiological platform permits the calculation of dynamic changes in metabolic fluxes around central carbon metabolism, producing a unique metabolic fingerprint of the liver's response to stimuli.

The structures appear in SMILES notation. Values joined by “and” are separate entries in the source; they are usually repeats but may differ in a detail not shown here. Identical values can stand only once.

For `Cc1cn([C@H]2C=C[C@@H](CO)O2)c(=O)[nH]c1=O` [Stavudine], the TC50 in series [1] was 800 µM and 800 ± 60 µM. Also, the bile secretion entry in series [2] was “mild inhibition”. The “patients with elevated liver enzymes” value in series [3] is listed as 30%. Further, the phospholipidosis entry in series [4] is “not”. For the same compound, the neutral lipids entry in series [4] (p<0.001, n=4) is “strong and significant increase”. Moreover, the “increase in the amount of intracellular lipids” value with HepG2/C3A organoids is 3 fold. Besides, in the series on E6/E7^LOW hepatocytes, the ATP production entry is “relatively unchanged”; the direct mitochondrial damage result was “no indication of direct mitochondrial damage”; the “metabolic fluxes (lipogenesis, glycolysis)” value was “transient increase in lipogenesis followed by global suppression of both glycolysis and lipogenesis”. The compound further returned an increase in lipogenesis in the series with E6/E7^LOW hepatocytes (flux balance analysis, below threshold of cellular damage, Valproate sustained, Stavudine transient) of 5%. In addition, in the series on E6/E7^LOW hepatocytes (human), the “time to onset of slow progressive damage post-exposure” value lay within 15 to 20 h.
